Source: patent US20080287526A1, “Pharmaceuticals for treating or preventing oral diseases” (HAWLEY & HAZEL (BVI) COMPANY LIMITED, priority 2007, published 2008)

Experiments:
TNF-α = assay: Anti-inflammatory effect in KB cells, LUMINEX analysis of TNF-α; assay type: cell-based, human; conditions: KB cell supernatant; the larger the value, the stronger the anti-inflammatory ability; test concentration not given
Protocol: (§1) Anti-inflammatory activity was assessed using the KB cell (the epidermis cancer cell in human oral cavity). During the experiment, the KB cell inoculated in the cultivating plate was treated with or without positive control or compound Morusin A. After the treatment, the supernatant of the cultivating medium was collected and stored in −80° C. refrigerator. Inflammation was assessed by measuring several inflammation markers: Prostaglandin E2 (PGE2) in the supernatant was detected by Enzyme-linked immunosorbent assay, and LUMINEX™ multifunctional liquid-phase chip analysis system was used for the detection of granulocyte monocyte colony stimulating factor (GM-CSF), tumor necrosis factor-alpha (TNF-α), and interleukins 1-beta and 6 (IL-1β and IL-6).
(§2) LUMINEX™ multifunctional liquid-phase chip analyses of GM-CSF, TNF-α, IL-1 and IL-6: The 96-well plate was enclosed with enclosing liquid for 30 minutes. Fluorescent microspheres were added into the 96-well plate after dilution. The standard and the samples to be measured were added, and incubated overnight at 4° C. The next day, the supernatant was discarded and 50 μL GM-CSF, TNF-α, IL-1β and IL-6 antibodies were added to each well. After being rinsed for 4 times, the 96-well plate was placed in a shaking table, which was in ambient temperature, to keep the plate away from light for one hour. […]

GM-CSF = assay: Anti-inflammatory effect in KB cells, LUMINEX analysis of GM-CSF; assay type: cell-based, human; conditions: KB cell supernatant; the larger the value, the stronger the anti-inflammatory ability; test concentration not given
Protocol: as §1, §2

IL-1β = assay: Anti-inflammatory effect in KB cells, LUMINEX analysis of IL-1β; assay type: cell-based, human; conditions: KB cell supernatant; the larger the value, the stronger the anti-inflammatory ability; test concentration not given
Protocol: as §1, §2

IL-6 = assay: Anti-inflammatory effect in KB cells, LUMINEX analysis of IL-6; assay type: cell-based, human; conditions: KB cell supernatant; the larger the value, the stronger the anti-inflammatory ability; test concentration not given
Protocol: as §1, §2

[1] = system: Porphyromonas gingivalis ATCC 33277; assay: Antibacterial MIC, micro-dilution method; assay type: cell-based; conditions: minimum inhibitive concentration; anaerobic; 2-fold dilution series 250-0.12 mg/L, ceiling 250 ppm; 37 °C, 18-24 h; unit not given
Protocol: (§3) A single colony was picked from the Trypticase Digested Soybean peptone agar blood plate (TSA5B) of ordinarily stored bacteria species and used to inoculate corresponding broth culture medium, which was cultivated in a microaerobic environment (P.g needs anaerobic cultivation) with 95% air, 5% CO2 at 37.0° C.±1.0° C., wherein S.m was cultivated for 18-24 h, and the remaining two species were cultivated for 40-48 h. Then corresponding broth cultivate medium was used to adjust the turbidity of the bacteria suspension to 0.5^# McFarland standard, equivalent to 1.0×10^8 CFU/mL.
(§4) The operating steps were:
(§5) a. Preparation of the stock solution of antibacterial pharmaceutical: 1% stock solution of various antibacterial pharmaceuticals was prepared with 100% pure ethanol as solvent. The prepared stock solution was filtered to eliminate bacteria, and was distributed into small portions to be used.
(§6) b. Range of measured concentration: the present experiment used 250 ppm as the ceiling measured concentration of the anti-bacterial pharmaceutical.
(§7) c. Measuring method: micro-dilution method.
(§8) First, 100 μL broth medium was added to each well of the 96-well plate, then 100 μL sterile anti-bacteria pharmaceutical solution, which was diluted 10-fold (1000 mg/L), was added to each well of the first column. Then each well of the first column was mixed repeatedly for 7-8 times using a multi-channel micropipet, and 100 μL sample was transferred to the second column after sufficiently mixing the pharmaceutical with TSB. After being mixed similarly for 7-8 times, 100 μL sample was transferred to the third column, and likewise to the wells of the remaining columns. Thus the concentration of the pharmaceutical was gradiently diluted 2-fold between the columns, from 500 mg/L in the first column to 0.24 mg/L in the last column (the 12th column).
(§9) The bacteria to be tested and the standard bacteria were prepared using the same method as above. […] 0.12 mg/L, and the final inoculation quantity was about […] or 5×10^6 bacteria in each well. […]

[2] = system: Actinomyces viscosus ATCC 27044; assay: Antibacterial MIC, micro-dilution method; assay type: cell-based; conditions: minimum inhibitive concentration; 2-fold dilution series 250-0.12 mg/L, ceiling 250 ppm; 37 °C, 18-24 h; unit not given
Protocol: as §3, §4, §5, §6, §7, §8, §9

[3] = system: Streptococcus mutans ATCC 25175; assay: Antibacterial MIC, micro-dilution method; assay type: cell-based; conditions: minimum inhibitive concentration; 2-fold dilution series 250-0.12 mg/L, ceiling 250 ppm; 37 °C, 18-24 h; unit not given
Protocol: as §3, §4, §5, §6, §7, §8, §9

CC1=C[C@H]2c3c(O)cc(-c4cc5ccc(O)cc5o4)cc3O[C@]3(c4ccc(O)cc4O)Oc4cc(O)ccc4[C@H](C1)[C@@H]23 [Morusin A]
anti-inflammatory effect, TNF-α (TNF-α): 93% | anti-inflammatory effect, GM-CSF (GM-CSF): 11% | anti-inflammatory effect, IL-1β (IL-1β): 23% | anti-inflammatory effect, IL-6 (IL-6): 53% | MIC, P. g ATCC 33277 [1]: 15.6 | MIC, A. v ATCC 27044 [2]: 3.9 | MIC, S. m ATCC 25175 [3]: 3.9
